Results published in patent US20190376110A1, “METHOD TO DETECT BACTERIAL ACTIVITY AND PATHOGENICITY WITH BIODYNAMIC SENTINELS” (Purdue Research Foundation, priority 2018, published 2019).

Key:
[1] = tested on: Salmonella pellet; assay: Biodynamic imaging / fluctuation spectroscopy of Salmonella bacterial pellet; assay type: cell-based; conditions: short-time response within 30 minutes of dose
Method: (§1) Various bacterial specimens can be prepared in a pellet form. A pellet is a condensed form of bacteria which allows them to be carried and handled more efficiently. Bacteria are grown in LB medium for 4 to 12 hours. When culturing is done, the bacteria density in medium is approximately 10^8 #/mL. To make the pellet, 25 mL of bacteria medium is stored in a centrifuge tube. The medium is centrifuged by 10,000 rpm for 10 minutes (Avanti J-20 XPI). During centrifugation, a pellet is formed at the bottom of a centrifuge tube.
(§2) There are two different sample plate preparations. A monoplex plate is a plate preparation format to test a rapid response of bacteria in single wells. The time resolution of the spectrum measurement is 2 minutes. A multiplex plate is a mode for measuring slow behavior using a measuring period is 30 minutes. For the multiplex, 16 wells are measured in parallel. A plate is firmly fixed on a translational stage controlled at 37 degrees Celsius or other temperature depending on the cell type and the bacterium. The plate is covered with a semi-permeable membrane which prevents the medium from drying out while permitting air molecule exchange.
(§3) Backscattered light from a specimen forms a speckle field consisting of many speckles with sizes determined by the point-spread-function of the imaging optics, and the speckle is delivered by a 4-f system (L1 and L2, f=15 cm). […]

[2] = tested on: E. coli pellet; assay: Biodynamic imaging / fluctuation spectroscopy of E. coli bacterial pellet; assay type: cell-based
Method: as §1, §2
Backscattered light from a specimen forms a speckle field consisting of many speckles with sizes determined by the point-spread-function of the imaging optics, and the speckle is delivered by a 4-f system (L1 and L2, f=15 cm). After the 4-f system, a lens (L3, f=5 cm) conducts Fourier transformation of the speckle and the Fourier image is formed at a Fourier plane on a Fourier-domain pixel array (such as a CCD).
To gain a more specific understanding of the effect of the nutrient shock, […] is used in a mode called […]. This breaks down the effects of a perturbation into a range of frequencies that are altered by the perturbation. Fluctuation spectroscopy is used routinely in biodynamic imaging applications for drug assays on cancer tissue. In the context of the bacterial pellets, the perturbation similarly can cause spectral changes whose specific frequencies relate to specific speeds of biological processes involved.

[3] = tested on: Listeria pellet; conditions: short-time response within 30 minutes of dose
Method: as §1, §2, §3

[4] = tested on: Listeria monocytogenes infection of DLD-1 sentinel; assay: Tissue sentinel antibiotic assay, DLD-1 spheroids infected by Listeria; assay type: cell-based
Method: As one example of an infection assay, a DLD-1 colon cancer cell line is prepared as a tissue fragment sentinel. DLD-1 cell lines are cultured for 24 hours and form a spheroid shape after incubation. Spheroids are immobilized within two hours by poly-D-lysine after placing spheroids on a bottom of plate.
To obtain infection spectra, bacteria in a pellet form can be re-suspended by diluting a pellet with various media (5% NaCl, growth medium, PBS etc.). The diluting process produces a uniform concentration of bacteria, and the bacterial concentration can be controlled by controlling volumes of media.
as §2
One of the most important applications of the tissue sentinels is to serve as a dynamic substrate for the study of antibiotic sensitivity and resistance. […]

O=C(O)c1cn(C2CC2)c2cc(N3CCNCC3)c(F)cc2c1=O [Cipro, Ciprofloxacin]
response of highest frequencies to Cipro [1]: not affected | response of highest frequencies to Cipro ([2]; short-time response within 30 minutes of dose): not affected | response of highest frequencies to Cipro [3]: not affected

CCO [ethanol]
response of highest frequency ([2]; 70% ethanol): relatively unaffected

CC1(C)S[C@@H]2[C@H](NC(=O)Cc3ccccc3)C(=O)N2[C@H]1C(=O)O [penicillin, penicillin G]
time after antibiotic at which weak infection signal emerges ([4]; L. mono, penicillin alone): about 8 hours | inhibition of L. mono strain by antibiotic ([4]; penicillin alone without streptomycin, FIG. 22): not completely inhibited

[Na+].[OH-] [NaOH]
spectrogram response of E. coli pellet to chemical agent ([2]; FIG. 10): broad inhibition of activity | low frequency response after adding chemical agents ([2]; FIG. 10 legend): highly suppressed
